In patent US20230286983A1 (4E Therapeutics, Inc., priority 2020, published 2023):

Tests used:
[1] = molecular target: T1, death-associated protein kinase-related apoptosis-inducing protein kinase 1 (DRAK1) (Homo sapiens, UniProt Q9UEE5); assay: Off-target kinase screen DRAK1; type: biochemical; details: 1 μM test compound
T1 sequence (Q9UEE5 1-414): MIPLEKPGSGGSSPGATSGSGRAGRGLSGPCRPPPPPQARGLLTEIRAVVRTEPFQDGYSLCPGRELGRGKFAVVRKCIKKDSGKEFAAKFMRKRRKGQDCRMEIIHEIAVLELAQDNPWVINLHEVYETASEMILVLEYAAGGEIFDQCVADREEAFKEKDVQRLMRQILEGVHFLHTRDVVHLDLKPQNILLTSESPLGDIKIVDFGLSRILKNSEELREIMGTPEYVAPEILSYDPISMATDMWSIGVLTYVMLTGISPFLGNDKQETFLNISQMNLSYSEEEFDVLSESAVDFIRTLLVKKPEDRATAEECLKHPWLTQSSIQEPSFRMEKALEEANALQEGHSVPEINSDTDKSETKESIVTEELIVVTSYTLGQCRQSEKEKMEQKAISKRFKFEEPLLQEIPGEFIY
Source text: (§1) These kinases were chosen because they are the only known off-target hit kinases for eFT508. These assays were done using recombinant human kinases (CLK4, DRAK1 and PKG2) in a substrate phosphorylation assay. % activity remaining after MNK inhibitor treatment is indicated in Table 12.

[2] = system: eIF4E phosphorylation at Serine 209 in Karpas 299; assay: eIF4E phosphorylation in Karpas 299 cells (sandwich ELISA); type: cell-based; details: Homo sapiens, read-out: Karpas 299 cell IC50
Description: The ability of MNK inhibitors described herein to inhibit eIF4E phosphorylation at Serine 209 in Karpas 299, Human Non-Hodgkin's Ki-positive Large Cell Lymphoma cell line was tested by sandwich enzyme linked immune-absorbance assay.

[3] = Liver microsome stability, human; type: in vitro ADME; details: liver microsomes; for half-life: read-out: Human liver microsomes t1/2
[4] = system: eIF4E phosphorylation at Serine 209 in the human osteosarcoma (U2OS) cell line; assay: eIF4E phosphorylation in U2OS cells (fluorescent plate reader); type: cell-based; details: eIF4E phosphorylation at Serine 209, 2 hours exposure; for IC50: Homo sapiens, U2OS
Description: The ability of MNK inhibitors described herein to inhibit eIF4E phosphorylation at Serine 209 in the human osteosarcoma (U2OS) cell line was tested by exposing the cells to compound for 2 hours and then measuring eIF4E phosphorylation with a phosphorylation-specific antibody in a fluorescent plate reader.

MNK2 = MNK2 (Homo sapiens, UniProt Q9HBH9); assay: MNK2 substrate phosphorylation assay; type: biochemical; details: recombinant human kinase
Chain of MNK2 (Q9HBH9 whole entry): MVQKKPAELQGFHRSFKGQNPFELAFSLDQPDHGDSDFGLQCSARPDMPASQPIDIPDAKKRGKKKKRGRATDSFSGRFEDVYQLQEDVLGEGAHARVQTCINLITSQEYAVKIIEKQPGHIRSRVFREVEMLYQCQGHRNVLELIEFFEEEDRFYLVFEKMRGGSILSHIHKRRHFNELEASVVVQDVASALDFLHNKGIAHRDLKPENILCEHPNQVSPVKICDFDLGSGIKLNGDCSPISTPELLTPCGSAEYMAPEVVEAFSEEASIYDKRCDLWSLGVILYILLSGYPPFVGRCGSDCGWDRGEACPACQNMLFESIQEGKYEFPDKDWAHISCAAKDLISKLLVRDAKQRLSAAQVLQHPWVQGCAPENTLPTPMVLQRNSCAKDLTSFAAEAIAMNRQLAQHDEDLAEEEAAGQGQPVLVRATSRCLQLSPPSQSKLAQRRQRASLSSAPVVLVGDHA

[5] = Liver microsome stability, rat; type: in vitro ADME; details: Rat liver microsomes (#); for microsomal CLint: read-out: CLint rodent; for half-life: read-out: Rodent liver microsomes t1/2
MNK1 = MNK1 (Homo sapiens, UniProt Q9BUB5); assay: MNK1 substrate phosphorylation assay; type: biochemical; details: recombinant human kinase
Chain of MNK1 (Q9BUB5 whole entry): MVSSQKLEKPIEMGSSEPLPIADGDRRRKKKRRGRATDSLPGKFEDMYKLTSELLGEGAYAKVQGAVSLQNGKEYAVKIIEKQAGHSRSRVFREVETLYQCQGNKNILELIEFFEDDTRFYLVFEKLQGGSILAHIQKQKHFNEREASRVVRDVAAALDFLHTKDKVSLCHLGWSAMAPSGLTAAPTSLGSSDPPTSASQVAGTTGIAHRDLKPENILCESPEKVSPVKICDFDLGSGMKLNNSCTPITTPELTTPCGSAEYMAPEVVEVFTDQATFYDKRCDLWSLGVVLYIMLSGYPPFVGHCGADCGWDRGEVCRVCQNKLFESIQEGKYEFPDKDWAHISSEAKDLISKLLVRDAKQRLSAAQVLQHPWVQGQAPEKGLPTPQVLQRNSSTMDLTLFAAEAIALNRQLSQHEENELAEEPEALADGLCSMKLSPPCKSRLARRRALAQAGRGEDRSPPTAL

[6] = molecular target: Cdc2-like kinase 4 (CLK4) (Homo sapiens, UniProt Q9HAZ1); assay: Off-target kinase screen CLK4; type: biochemical; details: 1 μM test compound
Chain of Cdc2-like kinase 4 (CLK4) (Q9HAZ1 whole entry): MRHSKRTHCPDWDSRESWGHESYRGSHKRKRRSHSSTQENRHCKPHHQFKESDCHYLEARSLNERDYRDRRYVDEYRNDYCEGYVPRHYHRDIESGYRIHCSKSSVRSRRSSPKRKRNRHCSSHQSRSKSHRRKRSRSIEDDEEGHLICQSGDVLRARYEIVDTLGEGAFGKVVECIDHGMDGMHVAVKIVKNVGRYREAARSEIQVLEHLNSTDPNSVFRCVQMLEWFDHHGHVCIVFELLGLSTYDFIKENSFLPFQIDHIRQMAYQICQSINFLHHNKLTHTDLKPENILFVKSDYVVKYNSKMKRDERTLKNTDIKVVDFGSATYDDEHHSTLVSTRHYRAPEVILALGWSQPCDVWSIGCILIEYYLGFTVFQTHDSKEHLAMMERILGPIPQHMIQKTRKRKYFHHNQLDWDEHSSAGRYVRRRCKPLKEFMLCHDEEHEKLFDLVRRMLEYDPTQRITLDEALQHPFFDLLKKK
Source text: as §1

[7] = molecular target: T2, protein kinase G 2 (PKG2) (Homo sapiens, UniProt Q13237); assay: Off-target kinase screen PKG2; type: biochemical; details: 1 μM test compound
T2 sequence (Q13237 1-762): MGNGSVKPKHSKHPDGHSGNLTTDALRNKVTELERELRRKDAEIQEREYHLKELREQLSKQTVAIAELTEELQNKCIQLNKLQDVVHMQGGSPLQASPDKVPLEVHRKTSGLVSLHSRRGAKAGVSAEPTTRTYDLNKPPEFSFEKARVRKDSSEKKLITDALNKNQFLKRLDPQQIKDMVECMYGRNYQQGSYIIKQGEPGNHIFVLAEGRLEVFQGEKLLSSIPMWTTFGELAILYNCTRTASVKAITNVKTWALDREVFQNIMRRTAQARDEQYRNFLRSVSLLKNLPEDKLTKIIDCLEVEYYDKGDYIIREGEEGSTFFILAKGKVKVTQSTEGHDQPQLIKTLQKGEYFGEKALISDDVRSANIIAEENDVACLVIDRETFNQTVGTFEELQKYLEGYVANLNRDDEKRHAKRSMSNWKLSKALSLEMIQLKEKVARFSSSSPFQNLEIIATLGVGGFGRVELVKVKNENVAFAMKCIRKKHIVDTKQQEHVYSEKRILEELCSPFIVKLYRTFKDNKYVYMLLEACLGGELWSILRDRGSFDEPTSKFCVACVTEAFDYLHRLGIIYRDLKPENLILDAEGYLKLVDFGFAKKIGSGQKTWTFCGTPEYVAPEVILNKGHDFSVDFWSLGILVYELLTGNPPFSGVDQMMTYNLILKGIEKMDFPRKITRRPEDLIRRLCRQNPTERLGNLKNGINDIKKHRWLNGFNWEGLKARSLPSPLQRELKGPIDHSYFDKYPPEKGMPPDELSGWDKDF
Source text: as §1

P-gp (human MDR1, ABCB1) = assay: MDCK-MDR1 permeability (blood brain barrier permeability); type: in vitro ADME, Canine; details: dog; for efflux ratio at 5 μM: MDCK-MDR1, 5 μM, read-out: Efflux ratio (ratio B-A/A-B); for Papp A→B at 5 μM: MDCK-MDR1, Apical to basolateral transport; for Papp A→B at 5 μM / Papp B→A at 5 μM: average of two experiments; for Papp B→A at 5 μM: MDCK-MDR1, Basolateral to apical transport
[8] = system: eIF4E phosphorylation at Serine 209 in the human embryonic kidney (HEK) 293 cell line; assay: eIF4E phosphorylation in HEK 293 cells (fluorescent plate reader); type: cell-based; details: eIF4E phosphorylation at Serine 209, 2 hours exposure; for IC50: Homo sapiens
Description: The ability of MNK inhibitors described herein to inhibit eIF4E phosphorylation at Serine 209 in the human embryonic kidney (HEK) 293 cell line was tested by exposing the cells to compound for 2 hours and then measuring eIF4E phosphorylation with a phosphorylation-specific antibody in a fluorescent plate reader. These experiments were done with HEK-293 cells plated on 96 well plates. Following treatment, cells were fixed with ice cold methanol for 10 min and then washed in 1× phosphate buffered saline (PBS) and the permeabilized with 0.02% Triton X-100 in 10% normal goat serum made up in PBS. Primary antibody was applied overnight at a concentration dilution of 1:2000 (p-eIF4E antibody from Cell Signaling ab76256). Following washing, cells were then exposed to secondary antibody conjugated to alexa-fluor 488 and then visualized on a Syngergy HTX plate reader. Fluorescence for p-eIF4E was measured and normalized to total DAPI fluorescence to determine the percentage of eIF4E phosphorylation in each well. Data were plotted in Graphpad Prism V8 to determine concentration-response effects and calculate IC50 values.

[9] = Liver microsome stability, mouse; type: in vitro ADME; details: Mouse liver microsomes (*); for microsomal CLint: read-out: CLint rodent; for half-life: mouse, liver microsomes, Table 11a, read-out: Rodent liver microsomes t1/2

| IC50 [2] [nM] | microsomal CLint [3] [µL/min/mg] | half-life [3] [h] | IC50 [4] [nM] | IC50 (MNK2) [nM] | microsomal CLint [5] [µL/min/mg] | half-life [5] [h] | IC50 (MNK1) [nM] | remaining activity at 1 µM [6] [%] | remaining activity at 1 µM [7] [%] | efflux ratio at 5 μM (P-gp (human MDR1, ABCB1)) | Papp A→B at 5 μM (P-gp (human MDR1, ABCB1)) [×10⁻⁶ cm/s] | Papp B→A at 5 μM (P-gp (human MDR1, ABCB1)) [×10⁻⁶ cm/s] | U2OS cell IC50 [4] | SMILES | remaining activity at 1 µM [1] [%] | IC50 ([8]; HEK293, 2 h) [nM] | IC50 ([8]; HEK293) [nM] | microsomal CLint [9] [µL/min/mg] | half-life [9] [h] | HEK 293 cell IC50 [8] |
| --- | --- | --- | --- | --- | --- | --- | --- | --- | --- | --- | --- | --- | --- | --- | --- | --- | --- | --- | --- | --- |
| 33 | 2.17 | 10.7 | 6.9 | 2.6 | 2.7 | 8.57 | 27.9 | 100 | 97 | 2.2 | 2.6 | 5.6 | – | Cc1cc(Nc2cc(N)ncn2)c(=O)n2c1C(=O)NC21CCOCC1 [Compound 4ET-01-002, 6-((6-Aminopyrimidin-4-yl)amino)-8-methyl-2′,3′,5′,6′-tetrahydro-2H-spiro[imidazo[1,5-a]pyridine-3,4′-pyran]-1,5-dione] | 72 | 18.5 | – | – | – | – |
| – | 1.25 | 18.5 | 30 | 2.1 | – | – | 61.7 | 81 | 100 | 30.2 | 0.3 | 7.6 | – | Cc1cc(Nc2cc(NCCNS(C)(=O)=O)ncn2)c(=O)n2c1C(=O)NC21CCCCC1 [Compound 4ET-02-004, N-(2-((6-((8′-methyl-1′,5′-dioxo-1′,5′-dihydro-2′H-spiro[cyclohexane-1,3′-imidazo[1,5-a]pyridin]-6′-yl)amino)pyrimidin-4-yl)amino)ethyl)methanesulfonamide] | 86 | 30.7 | – | 2.5 | 9.25 | – |
| 6.4 | 0.77 | 29.9 | 5.1 | 1.8 | 4.84 | 4.78 | 20.5 | – | – | 3.8 | 15.5 | 58.6 | – | Cc1cc(Nc2cc(NC(=O)C(C)C)ncn2)c(=O)n2c1C(=O)NC21CCCC1 [Compound 4ET-03-005, N-(6-((8′-Methyl-1′,5′-dioxo-1′,5′-dihydro-2′H-spiro[cyclopentane-1,3′-imidazo[1,5-a]pyridin]-6′-yl)amino)pyrimidin-4-yl)isobutyramide] | – | 2.6 | – | – | – | – |
| – | – | – | – | 8 | – | – | 205 | – | – | 18.1 | 0.2 | 3.9 | inactive | Cc1cc(Nc2cc(NCCNS(C)(=O)=O)ncn2)c(=O)n2c1C(=O)NC21CCCC1 [Compound 4ET-03-013, N-(2-((6-((8′-methyl-1′,5′-dioxo-1′,5′-dihydro-2′H-spiro[cyclopentane-1,3′-imidazo[1,5-a]pyridin]-6′-yl)amino)pyrimidin-4-yl)amino)ethyl)methanesulfonamide] | – | – | – | – | – | inactive |
| 3 | 2.73 | 8.45 | 2.4 | 1.4 | 3.18 | 7.27 | 19.1 | 14 | 100 | 10 | 0.9 | 8.7 | – | Cc1cc(Nc2cc(NC(=O)C3CC3)ncn2)c(=O)n2c1C(=O)NC21CCC(O)CC1 (stereo not shown) [Compound 4ET-03-015, N-(6-((4-Hydroxy-8′-methyl-1′,5′-dioxo-1′,5′-dihydro-2′H-spiro[cyclohexane-1,3′-imidazo[1,5-a]pyridin]-6′-yl)amino)pyrimidin-4-yl)cyclopropanecarboxamide] | 16 | 2.7 | – | – | – | – |

| SMILES | IC50 [2] [nM] | microsomal CLint [3] [µL/min/mg] | half-life [3] [h] | IC50 [4] [nM] | IC50 (MNK2) [nM] | microsomal CLint [5] [µL/min/mg] | half-life [5] [h] | IC50 (MNK1) [nM] | remaining activity at 1 µM [6] [%] | remaining activity at 1 µM [7] [%] | efflux ratio at 5 μM (P-gp (human MDR1, ABCB1)) | Papp A→B at 5 μM (P-gp (human MDR1, ABCB1)) [×10⁻⁶ cm/s] | Papp B→A at 5 μM (P-gp (human MDR1, ABCB1)) [×10⁻⁶ cm/s] | U2OS cell IC50 [4] | remaining activity at 1 µM [1] [%] | IC50 ([8]; HEK293, 2 h) [nM] | IC50 ([8]; HEK293) [nM] | microsomal CLint [9] [µL/min/mg] | half-life [9] [h] | HEK 293 cell IC50 [8] |
| --- | --- | --- | --- | --- | --- | --- | --- | --- | --- | --- | --- | --- | --- | --- | --- | --- | --- | --- | --- | --- |
| Cc1cc(Nc2cc(N)ncn2)c(=O)n2c1C(=O)NC21CCC(O)CC1 (stereo not shown) [Compound 4ET-01-005, 6′-((6-Aminopyrimidin-4-yl)amino)-4-hydroxy-8′-methyl-2′H-spiro[cyclohexane-1,3′-imidazo[1,5-a]pyridine]-1′,5′-dione] | 26 | 3.6 | 6.42 | 8.2 | – | – | – | 9.8 | 63 | 100 | 2.7 | 0.2 | 0.6 | – | 41 | – | 8.2 | 3.53 | 6.55 | – |
| Cc1cc(Nc2cc(NC(=O)C3CC3)ncn2)c(=O)n2c1C(=O)NC21CCCC1 [Compound 4ET-03-017, N-(6-((8′-Methyl-1′,5′-dioxo-1′,5′-dihydro-2′H-spiro[cyclopentane-1,3′-imidazo[1,5-a]pyridin]-6′-yl)amino)pyrimidin-4-yl)cyclopropanecarboxamide] | 1 | – | – | 0.4 | – | – | – | – | 17 | 100 | – | 16.3 | 58.9 | – | 9 | – | 0.9 | – | – | – |
